Reference: patent US20110142911A1, “HIV epitopes and pharmaceutical composition containing same” (Centre National de la Recherche Scientifique (CNRS), priority 2005, published 2011)

What was measured:
[1] = test system: CD4+ T lymphocytes from Class II H-2 invalidated HLA-DR1 transgenic mice; experiment: Proliferation test ([3H]-thymidine) of T cells from p24-immunized HLA-DR1 transgenic mice re-stimulated in vitro with peptide-loaded LPS blasts; format: cell-based, mouse
Excerpt: FIG. 1: The stimulation index of CD4+ T lymphocytes stemming from Class II H-2, invalidating HLA-DR1 transgenic mice (IAβ^bo) and immunized by means of the p24 protein of the HIV, is illustrated in this figure. The CD4+ T cells were re-stimulated in vitro by blasts activated by LPS and loaded with peptide Gag291-310, Gag301-320, Gag321-340, Gag331-350, and RT171-190 as control peptide. The stimulation index represents the ratio of the radioactivity measured after incorporation of [^3H]-thymidine by the T lymphocytes in the presence of specific peptides over the radioactivity measured by incorporation of [^3H]-thymidine by the T lymphocytes in the presence of the control peptide.
HLA-DR1 transgenic and Class II (IAβ^bo) H-2 invalidated mice, the line of which was established beforehand by Pajot et al., (Int. Immunol., 2004, 16:1275-1282) were used during the various experiments.
The mice, anesthetized with 75 mg/kg of pentobarbital (Ceva, Santé Animale, Libourne, France) received 4 μg of recombinant proteins associated with an alum adjuvant.
Twelve days after the last immunization, splenocytes separated from red corpuscles by purification on Ficoll (5·10^6 cells/25 cm^2 of culture flask (TECHNO PLASTIC PRODUCT, TPP, Trasadingen, Switzerland)) were co-cultivated in the presence of blast cells activated with LPS (5·10^6 cells/culture flask), loaded with peptides (20 μg/ml) and irradiated by γ rays (180 Gy), in an RPMI medium complemented with 10% FCS (Fetal Calf Serum), 10 mM HEPES, 1 mM sodium pyruvate, […] mercapto-2-ethanol, 100 IU/ml of penicillin and 100 μg of streptomycin, as described by Loirat at al., (Journal of Immunology, 2000, 165:4748-4755).
The blast cells were loaded with one of the test peptides Gag301-320, Gag321-340, or Gag331-350, or with a negative control peptide derived from an antigen of the HIV, the RT171-190 peptide, or with a positive control peptide derived from the p24 antigen of the HIV, the peptide Gag291-310, respectively.
After seven days of culture, proliferation tests were carried out after distributing 5·10^5 cells/wells, in 96-well plates with flat bottoms, from cells (obtained from TTP), in the presence of blast cells stimulated by LPS, irradiated and loaded with peptide (in an amount of 2·10^5 cells/well). The proliferation tests were conducted over a period of 72 hours, in a full RPMI medium complemented with 3% SVF.
The cells were incubated for the last 16 hours, with 1 μCi of [^3H]-thymidine per well before being recovered on filters with a TOMTEC collector (Perkin Elmer Applied Biosystem). The incorporated radioactivity was measured with a micro-β counter (Perkin Elmer Applied Biosystem)
The results are expressed as a stimulation index (IS) equal to the ratio of the cpm measured after incubation with the tested peptides over the cpm measured after incubation with the control peptide.
In order to evaluate the immunogenicity of HLA-DR1 restrictive epitopes, Gag301-320, Gag321-340, and Gag331-350, the Class II H-2 invalidated and HLA-DR1 transgenic mice were immunized with the p24 protein of the HIV. Subsequently, the T cells from the spleen were re-stimulated in vitro with the peptides to be tested and a positive control peptide Gag291-310, or a negative control peptide RT171-190.

[2] = test system: CD4+ T cells isolated from HLA-DR1 patients infected by HIV-1; experiment: IFN-γ ELISPOT test on PBMCs of HLA-DR1 patients infected by HIV-1; format: cell-based, human; conditions: patient 5.002/1
Experimental: FIG. 4: Table 3: Responses with secretion of IFN-γγ by CD4+ T cells isolated from HLA-DR1 patients infected by HIV-1 are illustrated in this Table. The responses of specific human CD4+ T cells of HIV-1 were evaluated by an ELISPOT test as described in the section “Materials and Methods”. The responses were evaluated with or without eliminating CD8+ T cells. The peptides used for stimulating PBMCs were either a set of peptides overlapping in length by 15 amino acids (set of 11 consecutive peptides), or a peptide of 20 amino acids in length.
The individuals infected by HIV-1 were selected from the French cohort ALT and selected with regard to their HLA-DR1 profile. The long term non-progressor condition of the patients was defined as being an asymptomatic HIV infection for at least 8 years, with a stable CD4+ T cell count at a level larger than or equal to 600 cells/mm^3, and without any anti-retrovirus therapy (Candotti at al., J. Med. Virol. 1999, 58:256-63).
HIV-1-specific human CD4+ T cell response towards various peptides was quantitated by the ELISPOT test on frozen mononuclear cells of peripheral blood (PBMC: peripheral blood mononuclear cells), as described earlier (Forsthubert et al., Science, 1996, 271:1728-30).
ELISPOT 96-well plates (Millipore, Molsheim, France) were covered with an antibody directed against human IFN-γγ (IgG1/B-B1, Diaclone, Strasburg, France).
After a blocking step in the presence of a medium containing 10% SVF, 1·10^5 PBMCs were distributed into the wells. The experiment was conducted in triplicate. The cells were grown during the night following their thawing. Next, the plates were incubated at 35° C. for 18 hours in the presence of 2 μg/ml of peptides derived from the Gag protein of HIV-1 (a 15-mer or 20-mer overlapping peptide; cf. Table 3).
Phytohemagglutinin (Murex, Paris, France, […]) and the medium alone were used as a positive and a negative control, respectively.
The wells were then subsequently washed and spots were detected by adding the detection antibody directly against human IFN-γγ and marked with biotin (B-G1-Diaclone) (4 hours, 37° C.), followed by adding the alkaline phosphatase on the streptavidin (1 hour, 37° C.) and the substrate (5-bromo-4-3-indolyl-phosphate/4-nitro-blue-tetrazolium; Sigma, Saint-Quentin Falavier, France). Incubation was maintained at room temperature, until blue dots appeared. The frequency of spot forming cells (SFCs) specific to the antigens was measured by means of an automated microscopy system (ZEISS, Munich, Germany) and counted as positive if a minimum of 50 SFCs/1·10^6 of PBMCs were detected above the background noise. […]
Recognition of the epitopes identified by CD4+ cells isolated from HLA-DR1+ patients infected by HIV-1 was evaluated by using the ELISPOT test. […]

Gag331-350: novel 20 amino acid HLA-DR1 restricted epitope peptide of the HIV-1 Gag p24 protein (KTILKALGPAATLEEMMTAC; Gag polyprotein; UniProt P04591 331-350, looked up, fragment)
number of mice responding to the peptide ([1]; Class II H-2 invalidated HLA-DR1 transgenic mice immunized with p24 (Table 2)): 3 mice out of 11 | proliferative cell response (FIG. 1) ([1]; mice immunized with p24 protein of HIV, T cells from spleen re-stimulated in vitro with peptide): capable of developing a proliferative cell response | IFN-γ ELISPOT recognition by CD4+ T cells [2]: recognized
